SMILES strings stand for the structures.

Holding throughout (assay type): in vivo
Assay [1] relates to Rice (variety: Nipponbare). In words: Test Example 1: promotion of root growth by hydroponics of rice, 10 ppm. The note with it: Oryza sativa, hydroponic solution containing the test compound at 10 ppm, average of 4 or 5 individuals, read-out: Relative value of length of seminal root (%-untreated control plot). As to the method:
(§1) Test for Evaluating Promotion of Root Growth by Hydroponics of Rice
(§2) Rice (variety: Nipponbare)
Rice seeds were soaked in a 1% aqueous sodium hypochlorite solution for 10 minutes, then soaked in a 70% ethanol solution for surface sterilization, and then washed with distilled water. The sterilized seeds were soaked in a hydroponic solution containing the test compound described above at 10 ppm and incubated in a dark place for 3 days at 28° C. to perform treatment for hastening germination.
Thereafter, 30 ml of hydroponic solution containing the test compound at 10 ppm was dispensed in a plastic tube (diameter of 20 mm×height of 113 mm) of which the side was covered with cardboard to block light. A float prepared using a styrene board and vinyl mesh was floated, and the rice seeds that had undergone the treatment for hastening germination were placed on the float on the surface of the hydroponic solution. The seeds were cultivated for 3 days at 26° C., an illuminance of 4,000 lux of the top surface of the tube, a humidity of 50%, and a day length of 16 hours.
(§3) The nursery plants of rice obtained after culturing were measured in terms of the length of seminal root by using WinRHIZO system (manufactured by Regent Instruments Inc). For each test plot, an average of the measured values of the seminal root of 4 or 5 individuals was determined.

For assay [2], the system named is Nicotiana benthamiana. In words: Test Example 6: growth promotion under low-temperature stress by hydroponics of Nicotiana benthamiana, 0.1 ppm. As to conditions: 0.1 ppm in medium, low-temperature stress 7 days at 1.5±1.0° C., green leaf area 3 days later, equation (1). As to the method: (§4) Test for Evaluating Growth Promotion Under Low-Temperature Stress by Hydroponics of Nicotiana benthamiana
A DMSO solution, which contained one of the compounds 3, 7, 14, 16, 36, 39, 43, 45, 50, 52, 53, 54, 56, 57, 62, 63, 64, 65, 68, 69, 70, 71, 73, 74, 76, 77, 79, 80, 81, 84, 85, 86 and 87 of the present invention at a concentration of 100 ppm, was prepared. The DMSO solution of the compound of the present invention was added at a volume ratio of 1/1,000 to the Murashige•Scoog medium of a ½-fold concentration for the Murashige•Scoog medium (a medium containing 2.3 g of mixed salts (manufactured by Wako Pure Chemical Industries, Ltd.), 200 mg of Myo-inositol (manufactured by Sigma-Aldrich Co. LLC.), 2 mg of nicotinic acid (manufactured by Wako Pure Chemical Industries, Ltd.), 2 mg of pyridoxine hydrochloride (manufactured by Wako Pure Chemical Industries, Ltd.), 20 mg of thiamine hydrochloride (manufactured by Wako Pure Chemical Industries, Ltd.), 20 g of sucrose (manufactured by Wako Pure Chemical Industries, Ltd.), and 1 g of MES (manufactured by DOJINDO LABORATORIES) per 1 L of water and having pH adjusted to 5.8), thereby preparing a medium containing the compound of the present invention at a concentration of 0.1 ppm.
(§5) Seeds of Nicotiana benthamiana were seeded in the 5 μL of the medium and cultured overnight at 22° C. Thereafter, 45 μL of the medium containing the compound of the present invention at a concentration of 0.1 ppm was added thereto, and the seeds are cultivated for 7 days at 22° C., an illuminance of 4,000 lux, and a day length of 16 hours, and the nursery plants raised from the Nicotiana benthamiana were treated with the compound. Moreover, instead of the above medium a test plot, which was obtained by performing the same treatment by using a medium prepared by adding DMSO to the Murashige•Scoog medium of ½-fold concentration at a volume ratio of 1/1,000, was used as a control plot not treated with the compound.
(§6) The nursery plants of the Nicotiana benthamiana treated with the compound were subjected to low-temperature treatment by being cultivated for 7 days at 1.5±1.0° C., an illuminance of 2,000 lux, and a day length of 16 hours.
The nursery plants of the Nicotiana benthamiana having undergone the low-temperature stress treatment were cultivated for 3 days at 22° C., an illuminance of 4,000 lux, and a day length of 16 hours. Thereafter, the area of green leaf was quantified by Scanalyzer HTS (manufactured by LemnaTec GmbH). Moreover, the value of the control plot not treated with the compound that had not yet been subjected to the low-temperature stress treatment was measured in the same manner. A value of a relative leaf area was calculated based on the following equation (1), and if the value of a relative leaf area was 5 or greater, the compound was evaluated to have a mitigating effect. As a result of the evaluation, it was confirmed that when the plant was treated with one of the compounds 3, 7, 14, 16, 36, 39, 43, 45, 50, 52, 53, 54, 56, 57, 62, 63, 64, 65, 68, 69, 70, 71, 73, 74, 76, 77, 79, 80, 81, 84, 85, 86 and 87 of the present invention at 0.1 ppm, the value of a relative leaf area was 5 or greater, compared to the area of green leaf of the control plot not treated with compound. Accordingly, it was confirmed that the treatment using the compound of the present invention brings about a growth promotion effect.
Relative leaf area=100*(a green area of a plot treated with the compound of the present invention−a green area of a control plot not treated with the compound of the present invention)/(a green area of a control plot not treated with the compound of the present invention that has not yet been subjected to low-temperature stress treatment−green area of a control plot not treated with the compound of the present invention) Equation (1): […]

Assay [3] has as its system Nicotiana benthamiana. In words: Test Example 5: growth promotion under low-temperature stress by hydroponics of Nicotiana benthamiana, 1 ppm. As to conditions: 1 ppm in medium, low-temperature stress 7 days at 1.5±1.0° C., green leaf area 3 days later, equation (1). On the procedure:
as §4
A DMSO solution, which contained one of the compounds 2, 4, 5, 6, 11, 12, 17, 20, 21, 28, 30, 34, 36, 37, 51, 52, 53, 55, 56, 58, 59, 60, 64, 65, 66, 68, 69, 70, 74, 77, 82, 83, 84, 86 and 87 of the present invention at a concentration of 1,000 ppm, was prepared. The DMSO solution of the compound of the present invention was added at a volume ratio of 1/1,000 to the Murashige•Scoog medium of a ½-fold concentration (a medium containing 2.3 g of mixed salts for the Murashige•Scoog medium (manufactured by Wako Pure Chemical Industries, Ltd.), 200 mg of Myo-inositol (manufactured by Sigma-Aldrich Co. LLC.), 2 mg of nicotinic acid (manufactured by Wako Pure Chemical Industries, Ltd.), 2 mg of pyridoxine hydrochloride (manufactured by Wako Pure Chemical Industries, Ltd.), 20 mg of thiamine hydrochloride (manufactured by Wako Pure Chemical Industries, Ltd.), 20 g of sucrose (manufactured by Wako Pure Chemical Industries, Ltd.), and 1 g of MES (manufactured by DOJINDO LABORATORIES) per 1 L of water and having pH adjusted to 5.8), thereby preparing a medium containing the compound of the present invention at a concentration of 1 ppm.
as §5, with “of 1” for “of 0.1”, “are cultured” for “are cultivated”, “above medium,” for “above medium”
as §6
The nursery plants of the Nicotiana benthamiana having undergone the low-temperature stress treatment were cultured for 3 days at 22° C., an illuminance of 4,000 lux, and a day length of 16 hours. Thereafter, the area of green leaf was quantified by Scanalyzer HTS (manufactured by LemnaTec GmbH). Moreover, the value of the control plot not treated with the compound that had not yet been subjected to the low-temperature stress treatment was measured in the same manner. A value of a relative leaf area was calculated based on the following equation (1), and if the value of a relative leaf area was 5 or greater, the compound was evaluated to have a mitigating effect. As a result of the evaluation, it was confirmed that when the plant was treated with one of the compounds 2, 4, 5, 6, 11, 12, 17, 20, 21, 28, 30, 34, 36, 37, 51, 52, 53, 55, 56, 58, 59, 60, 64, 65, 66, 68, 69, 70, 74, 77, 82, 83, 84, 86 and 87 of the present invention at 1 ppm, the value of a relative leaf area was 5 or greater, compared to the area of green leaf of the control plot not treated with compound. Accordingly, it was confirmed that the treatment using the compound of the present invention brings about a growth promotion effect.
Relative leaf area=100*(a green area of a plot treated with the compound of the present invention−a green area of a control plot not treated with the compound of the present invention)/(a green area of a control plot not treated with the compound of the present invention that has not yet been subjected to low-temperature stress treatment−a green area of a control plot not treated with the compound of the present invention) Equation (1): […]

Assay [4] has as its system Rice (variety: Nipponbare). In words: Test Example 3: promotion of root growth by hydroponics of rice, 0.1 ppm. The note with it: Oryza sativa, hydroponic solution containing the test compound at 0.1 ppm, average of 4 or 5 individuals, read-out: Relative value of length of seminal root (%-untreated control plot). On the procedure:
as §1, §2
A DMSO solution, which contained one of the compounds 2, 6, 7, 16, 20, 33, 34, 36, 37, 38, 40, 41, 43, 44, 45, 46, 47, 48, 50, 51, 52, 53, 54, 55, 56, 61, 64, 67, 68, 71, 72, 73, 74, 75, 76, 79, 80, 81 and 83 of the present invention at a concentration of 1,000 ppm, was added to Hoagland hydroponic solution (Hoagland and Arnon, California Agricultural Experiment Station 1950 Circular 347 pp. 34) of ¼-fold concentration at a volume ratio of 1/10,000. In this manner, hydroponic solutions containing one of the compounds 2, 6, 7, 16, 20, 33, 34, 36, 37, 38, 40, 41, 43, 44, 45, 46, 47, 48, 50, 51, 52, 53, 54, 55, 56, 61, 64, 67, 68, 71, 72, 73, 74, 75, 76, 79, 80, 81 and 83 of the present invention at 0.1 ppm were prepared respectively. As an untreated control plot, a hydroponic solution obtained by adding DMSO to Hoagland hydroponic solution of ¼-fold concentration at a volume ratio of 1/10,000 was used.
Rice seeds were soaked in a 1% aqueous sodium hypochlorite solution for 10 minutes, then soaked in a 70% ethanol solution for surface sterilization, and then washed with distilled water. The sterilized seeds were soaked in a hydroponic solution containing the test compound described above at 0.1 ppm and incubated in a dark place for 3 days at 28° C. to perform treatment for hastening germination.
Thereafter, 30 ml of hydroponic solution containing the test compound at 0.1 ppm was dispensed in a plastic tube (diameter of 20 mm×height of 113 mm) of which the side was covered with cardboard to block light. A float prepared using a styrene board and vinyl mesh was floated, and the rice seeds that had undergone the treatment for hastening germination were placed on the float on the surface of the hydroponic solution. The seeds were cultivated for 3 days at 26° C., an illuminance of 4,000 lux of the top surface of the tube, a humidity of 50%, and a day length of 16 hours.
as §3

On to `COC(=O)c1oc2ccccc2c1N` [Compound 57], for which the change in vivo at 10 ppm in assay [1] is over 5%. The compound further registered a relative leaf area (% of untreated control) at 0.1 ppm in the assay on Nicotiana benthamiana [2] of at least 5%. In the assay on Nicotiana benthamiana [3], `COC(=O)c1oc2ccccc2c1NC(=O)c1ccccc1` [Compound 59] displayed a relative leaf area (% of untreated control) at 1 ppm of at least 5%. In turn, `COC(=O)c1oc2ccc(C(F)(F)F)cc2c1NC(=O)c1ccccc1` [Compound 66] displayed a relative leaf area (% of untreated control) at 1 ppm with Nicotiana benthamiana [3] of at least 5%. With `COC(=O)c1oc2ccccc2c1NC=O` [Compound 81], the change in vivo at 0.1 ppm in assay [4] is over 5%. The change in vivo at 10 ppm in assay [1] is over 5%. This compound also had a relative leaf area (% of untreated control) at 0.1 ppm in the assay with Nicotiana benthamiana [2] of at least 5%.
